For one compound, symptoms after injection results are on record in US20070111318A1 (priority 2003, published 2007).

The series deals with ddY mice. Particulars: mouse, in vivo, ip.

Molecules are shown by their SMILES.

Take `C=C(C[C@@H]1C[C@H](O)[C@]2(C)O[C@@H]3C[C@@H]4O[C@@H]5C[C@]6(C)O[C@]7(C)CC[C@@H]8O[C@@H]9C[C@]%10(C)O[C@@H]%11C(C)=CC(=O)O[C@H]%11C[C@H]%10O[C@H]9C[C@@H](C)[C@H]8O[C@H]7C[C@H]6O[C@@]5(C)C/C=C\[C@H]4O[C@H]3C[C@H]2O1)C(=O)O` [BTX-B5, brevetoxin B5]: the symptoms after injection entry is recorded as “symptoms of neurotoxicity extremely similar to those caused by other brevetoxins”.
